# Values of other authors as cited in patent US20080242855A1, “Process for Producing Flavone C Glycoside Derivatives” (priority 2004, published 2008).
# What was measured:
# [1] = tested on: auricular edema induced by 2,4-dinitrofluorobenzen (DNFB); settings: reported in Japanese Patent Laid-Open No. 2004-035474
# [2] = tested on: peritoneal mast cells; settings: reported in Japanese Patent Laid-Open No. 2004-035474
SMILES,"inhibitory effect on the formation of auricular edema induced by 2,4-dinitrofluorobenzen (DNFB) [1]",inhibitory effect on histamine release from peritoneal mast cells [2]
O=c1cc(-c2ccc(O)cc2)oc2cc3c(c(O)c12)[C@@H]1O[C@H](CO)[C@@H](O)[C@H](O)[C@@H]1O3 [formula (1)],inhibitory effect,inhibitory effect
O=c1cc(-c2ccc(O)cc2)oc2c3c(cc(O)c12)O[C@H]1[C@@H](O)[C@H](O)[C@@H](CO)O[C@@H]31 [formula (4)],inhibitory effect,inhibitory effect
